Results: patent US11351178B2, “Selective HDAC6 inhibitors” (ITALFARMACO S.P.A., priority 2017, dated 2022)
Read-outs that look alike come from different tables or passages of the source.

What was measured:
[1] = test system: peripheral blood mononuclear cells (PBMCs); test: Cytotoxicity on PBMCs (CellTiter 96); assay type: cell-based; conditions: PBMC, 72 h; read-out: PBMC TOXICITY (72 h)
How it was run: (§1)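 Cells seeded (2×10^4/well for 697, 5×10^5/well for PBMCs); compounds added after 24 h at 1–10000 nM (697) or 1.5–10000 nM (PBMCs) and incubated 72 h. Viability read by CellTiter 96 Aqueous One tetrazolium assay of mitochondrial function.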

[2] = Stability to Phase I metabolism in rat S9 liver fraction; assay type: in vitro ADME; conditions: after 90 min, 37° C.
How it was run: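 Compounds were incubated with rat or human liver S9 fraction at 37 °C for up to 90 min. Reactions were quenched on ice with acidified acetonitrile and analysed by HPLC-UV or LC-MS/MS. Percent remaining versus time zero and intrinsic clearance were calculated.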

recombinant human HDAC6 = molecular target: T1, recombinant human HDAC6 (Homo sapiens, UniProt Q9UBN7); test: Enzymatic screening on recombinant human HDAC6; assay type: biochemical; conditions: Table 2
T1 sequence (Q9UBN7 1-1215): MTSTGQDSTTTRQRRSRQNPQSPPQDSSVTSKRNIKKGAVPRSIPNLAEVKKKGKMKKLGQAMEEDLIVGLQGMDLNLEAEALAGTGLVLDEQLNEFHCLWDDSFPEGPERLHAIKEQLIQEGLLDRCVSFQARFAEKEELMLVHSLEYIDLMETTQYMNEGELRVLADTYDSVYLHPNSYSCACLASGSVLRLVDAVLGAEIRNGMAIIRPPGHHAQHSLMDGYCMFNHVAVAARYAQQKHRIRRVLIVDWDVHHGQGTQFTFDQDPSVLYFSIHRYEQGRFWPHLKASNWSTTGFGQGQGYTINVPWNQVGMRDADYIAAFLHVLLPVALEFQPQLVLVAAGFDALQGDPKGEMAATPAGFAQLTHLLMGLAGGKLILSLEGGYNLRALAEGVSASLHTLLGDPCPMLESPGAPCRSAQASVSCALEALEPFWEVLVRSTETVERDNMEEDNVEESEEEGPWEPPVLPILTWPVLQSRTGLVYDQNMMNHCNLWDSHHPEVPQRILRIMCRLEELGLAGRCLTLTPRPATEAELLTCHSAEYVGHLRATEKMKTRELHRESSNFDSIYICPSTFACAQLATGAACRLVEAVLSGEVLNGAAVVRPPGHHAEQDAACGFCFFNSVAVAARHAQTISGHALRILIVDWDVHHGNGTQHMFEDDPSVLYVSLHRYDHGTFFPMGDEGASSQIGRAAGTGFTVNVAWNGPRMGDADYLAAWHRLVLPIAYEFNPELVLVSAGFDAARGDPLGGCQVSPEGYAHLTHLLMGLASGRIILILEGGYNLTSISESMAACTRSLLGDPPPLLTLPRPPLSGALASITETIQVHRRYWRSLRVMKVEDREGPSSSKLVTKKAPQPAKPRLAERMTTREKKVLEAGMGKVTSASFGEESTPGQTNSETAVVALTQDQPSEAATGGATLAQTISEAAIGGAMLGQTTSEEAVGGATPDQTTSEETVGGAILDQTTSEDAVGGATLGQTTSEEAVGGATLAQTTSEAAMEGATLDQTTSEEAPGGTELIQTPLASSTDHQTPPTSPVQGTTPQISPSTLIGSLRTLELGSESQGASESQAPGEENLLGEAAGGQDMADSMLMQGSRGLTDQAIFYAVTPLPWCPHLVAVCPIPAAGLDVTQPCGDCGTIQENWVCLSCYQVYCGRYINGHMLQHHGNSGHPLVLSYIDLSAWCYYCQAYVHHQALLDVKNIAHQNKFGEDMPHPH
How it was run: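 Substrates were Fluor de Lys, Fluor de Lys-Green or trifluoroacetyl-L-lysine, in 25 mM Tris-HCl pH 8, 130 mM NaCl, 0.05% Tween-20, 10% glycerol. They were added after isoform-dependent preincubation of recombinant human enzyme with compound at 30 °C, and the reaction also ran at 30 °C.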

[3] = test system: B 697 promyelocytic cell line; test: Cytotoxicity on 697 cell line (CellTiter 96); assay type: cell-based; conditions: 72 hours incubation, read-out: 697 TOXICITY
How it was run: as §1

[4] = Stability to Phase I metabolism in human S9 liver fraction; assay type: in vitro ADME
Description: Test compounds were incubated in rat and human liver S9 fraction at 37° C. up to 90 minutes in order to evaluate their stability to Phase I metabolism by hepatic enzymes. […] The reaction was stopped placing samples on ice bath and adding acidified acetonitrile. After centrifugation (10 minutes at 14000 rpm) an aliquot of the supernatant was diluted water, filtered with 0.45 μm regenerated cellulose syringe filters and injected in HPLC-UV or in LC-MS/MS. The percentages of the amount remaining at the various incubation times with respect to the initial amount were calculated. The intrinsic clearance was also calculated.

[5] = Stability in human plasma; assay type: in vitro ADME; conditions: after 4 hours, 37° C.
Description: In order to evaluate the stability to circulating enzymes, test compounds were incubated in human and rat plasma at 37° C. in a thermostated oscillating bath. Each test compound was incubated at μM (50 μM when the samples were analysed by UV/HPLC, 1 or 2 μM when the samples were analysed by LC-MS/MS) concentration for 0, 15, 30 min and 1, 2 and 4 hours. The reaction was stopped placing tubes on ice bath and adding acidified acetonitrile. After centrifugation for 10 minutes at 14000 rpm, an aliquot of the supernatant was diluted with water, filtered with 0.45 μm syringe filters and injected in HPLC-UV or in LC-MS/MS. The percentages of amount remaining at the various times of incubation with respect to initial amount were calculated. The half-life in plasma was also calculated.

Stability in rat plasma = assay type: in vitro ADME; conditions: after 4 hours, 37° C.
How it was run: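 Compounds incubated at 37° C in rat or human plasma at 50 μM (UV/HPLC) or 1 or 2 μM (LC-MS/MS) for 0–4 h. Reaction stopped with acidified acetonitrile on ice; percent remaining versus initial amount and plasma half-life calculated.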

SMILES	IC50 [1]	residual percentage in rat S9 fraction [2]	IC50 (recombinant human HDAC6; read-out: HDAC6 IC50)	IC50 [3]	residual percentage in human S9 fraction ([4]; human, 90 min, pH 7.4)	residual percentage in human plasma [5]	residual percentage in rat plasma (Stability in rat plasma)	IC50 (recombinant human HDAC6; HDAC6 IC50 (nM))	residual percentage in human S9 fraction ([4]; human liver S9 fraction, after 90 min, 37° C.)
Cn1c(Sc2c(F)cc(C(=O)NO)cc2F)nnc1-c1coc(CN2CCOCC2)c1 [comp. 203, 3,5-difluoro-4-[[4-methyl-5-[5-(morpholinomethyl)-3-furyl]-1,2,4-triazol-3-yl]sulfanyl]benzenecarbohydroxamic acid]	> 10000 nM	58%	14 nM	15200 nM	74%	95%	94%	–	–
CC1(C)CC(=O)c2c(S(C)(=O)=O)sc(-c3nnn(Cc4ccc(C(=O)NO)cc4)n3)c2C1 [compound 74]	2000 nM	61%	17 nM	2280 nM	84%	100%	94%	–	–
O=C(NO)c1ccc(Cc2noc(-c3ccccc3)n2)cc1 [compound 189, 4-[(5-phenyl-1,2,4-oxadiazol-3-yl)methyl]benzenecarbohydroxamic acid]	1050 nM	5%	9 nM	291 nM	72%	100%	78%	–	–
O=C(NO)c1ccc(Cn2nnnc2-c2ccccn2)cc1 [comp. 20, N-hydroxy-4-((5-(pyridin-2-yl)-1H-tetrazol-1-yl)methyl)benzamide]	2000 nM	88%	4 nM	1120 nM	101.7%	94.3%	98.5%	–	–
Cn1c(Sc2c(F)cc(C(=O)NO)cc2F)nnc1-c1ccccn1 [comp. 14, 3,5-difluoro-N-hydroxy-4-((4-methyl-5-(pyridin-2-yl)-4H-1,2,4-triazol-3-yl)thio)benzamide]	> 10000 nM	88%	8 nM	3940 nM	87%	77%	38%	–	–
Cc1cc(-c2nnc(Sc3c(F)cc(C(=O)NO)cc3F)n2C)nn1C [comp. 100, 4-[[5-(1,5-dimethylpyrazol-3-yl)-4-methyl-1,2,4-triazol-3-yl]sulfanyl]-3,5-difluoro-benzenecarbohydroxamic acid]	10000 nM	30%	–	7090 nM	–	92%	80%	7 nM	76%
CN(C)S(=O)(=O)c1ccc(F)c(-c2nnc(Sc3ccc(C(=O)NO)cc3)n2C)c1 [compound 76]	> 10000 nM	76%	28 nM	> 10000 nM	77%	96%	98%	–	–
Cn1c(Sc2c(F)cc(C(=O)NO)cc2F)nnc1-c1ccc(CCN2CCCC2)nc1 [comp. 210, 3,5-difluoro-4-[[4-methyl-5-[6-(2-pyrrolidin-1-ylethyl)-3-pyridyl]-1,2,4-triazol-3-yl]sulfanyl]benzenecarbohydroxamic acid]	> 10000 nM	71%	7 nM	10400 nM	80%	79%	84%	–	–
CN(C)S(=O)(=O)c1cccc(-c2nnc(Cc3ccc(C(=O)NO)cc3)o2)c1 [comp. 3, 4-((5-(3-(N,N-dimethylsulfamoyl)phenyl)-1,3,4-oxadiazol-2-yl)methyl)-N-hydroxybenzamide]	735 nM	66%	11 nM	2880 nM	93%	100%	79%	–	–
O=C(NO)c1ccc(Cc2nnc(-c3ccccc3)s2)cc1 [compound 190, 4-[(5-phenyl-1,3,4-thiadiazol-2-yl)methyl]benzenecarbohydroxamic acid]	983 nM	9%	3 nM	333 nM	64%	99%	73%	–	–
